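Values below derive from 48-hour exposures of cells grown in 96-well plates, with endpoints linearly interpolated between the two concentrations bracketing the appropriate inhibition level. At the GI50, growth is halved.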 The source made the active and inactive calls. Cut-off read from the data, not from the text of the source: active = GI50 up to about 1.1 µM and inactive = higher.
Key:
Experiment in all cases: inhibition of tumour cell growth, NCI panel, 48 h
SF-295 = tested on: SF-295
RPMI-8226 = tested on: RPMI-8226
DU-145 = tested on: DU-145
MCF7 = tested on: MCF7
CAKI-1 = tested on: CAKI-1
EKVX = tested on: EKVX
IGROV-1 = tested on: IGROV-1
BT-549 = tested on: BT-549
MDA-MB-435 = tested on: MDA-MB-435
SNB-75 = tested on: SNB-75
SF-539 = tested on: SF-539
HOP-62 = tested on: HOP-62
LOX IMVI = tested on: LOX IMVI
SR = tested on: SR
COLO 205 = tested on: COLO 205
OVCAR-5 = tested on: OVCAR-5
CCRF-CEM = tested on: CCRF-CEM
Hs-578T = tested on: Hs-578T
MDA-N = tested on: MDA-N
A498 = tested on: A498

SMILES	GI50 (SF-295)	GI50 (RPMI-8226)	GI50 (DU-145)	GI50 (MCF7)	GI50 (CAKI-1)	GI50 (EKVX)	GI50 (IGROV-1)	GI50 (BT-549)	GI50 (MDA-MB-435)	GI50 (SNB-75)	GI50 (SF-539)	GI50 (HOP-62)	GI50 (LOX IMVI)	GI50 (SR)	GI50 (COLO 205)	GI50 (OVCAR-5)	GI50 (CCRF-CEM)	GI50 (Hs-578T)	GI50 (MDA-N)	GI50 (A498)
Cc1cc(C)nc(NS(=O)(=O)c2ccc(NC(=O)c3ccc4nc5ccccc5c(Nc5ccc(S(N)(=O)=O)cc5)c4c3)cc2)n1	> 100 µM (inactive)	64.1 µM (inactive)	> 100 µM (inactive)	49.2 µM (inactive)	> 100 µM (inactive)	> 100 µM (inactive)	> 100 µM (inactive)	28.2 µM (inactive)	> 100 µM (inactive)	> 100 µM (inactive)	> 100 µM (inactive)	> 100 µM (inactive)	45.6 µM (inactive)	40.1 µM (inactive)	> 100 µM (inactive)	> 100 µM (inactive)	28.2 µM (inactive)	91.2 µM (inactive)	–	–
COC(=O)C1(C(=O)OC)Cc2ccc(C)cc2C2=C1C(=O)c1ccccc1C2=O	21.2 µM (inactive)	–	20.2 µM (inactive)	15 µM (inactive)	–	14.6 µM (inactive)	19.4 µM (inactive)	–	15.6 µM (inactive)	12.8 µM (inactive)	23.9 µM (inactive)	14.4 µM (inactive)	14.9 µM (inactive)	24.2 µM (inactive)	–	21 µM (inactive)	15.2 µM (inactive)	24.6 µM (inactive)	16.5 µM (inactive)	–
CC(=O)OCC(OC(C)=O)C(OC(C)=O)C(OC(C)=O)C(=O)CNn1c(-c2ccc(C)cc2)nc2ccccc2c1=O (stereo not drawn)	> 100 µM (inactive)	39.4 µM (inactive)	–	–	90.2 µM (inactive)	> 100 µM (inactive)	–	–	–	53.1 µM (inactive)	> 100 µM (inactive)	> 100 µM (inactive)	> 100 µM (inactive)	41.2 µM (inactive)	> 100 µM (inactive)	> 100 µM (inactive)	> 100 µM (inactive)	–	–	> 100 µM (inactive)
CCOC(=O)c1s/c(=N\Nc2nc3ccccc3cc2C2OCCO2)n(Cc2ccccc2)c1C	> 100 µM (inactive)	> 100 µM (inactive)	–	–	> 100 µM (inactive)	> 100 µM (inactive)	> 100 µM (inactive)	–	–	> 100 µM (inactive)	> 100 µM (inactive)	> 100 µM (inactive)	> 100 µM (inactive)	4.65 µM (inactive)	> 100 µM (inactive)	> 100 µM (inactive)	> 100 µM (inactive)	–	–	> 100 µM (inactive)
CCN(CCCl)c1ccc(NC(=O)c2cc(C(=O)NCCN(C)C)cc(C(=O)Nc3ccc(N(CC)CCCl)cc3)c2)cc1	9.46 µM (inactive)	3.46 µM (inactive)	8.41 µM (inactive)	0.746 µM (active)	27.5 µM (inactive)	–	6.43 µM (inactive)	–	8.32 µM (inactive)	8.55 µM (inactive)	1.62 µM (inactive)	1.82 µM (inactive)	1.36 µM (inactive)	0.659 µM (active)	–	16.5 µM (inactive)	0.0687 µM (active)	0.513 µM (active)	11.1 µM (inactive)	18.5 µM (inactive)
OC(CC(O)(C(F)(F)F)C(F)(F)F)C(O)c1ccco1 (stereo not drawn)	> 10 µM (inactive)	> 10 µM (inactive)	> 10 µM (inactive)	> 10 µM (inactive)	> 10 µM (inactive)	> 10 µM (inactive)	> 10 µM (inactive)	–	> 10 µM (inactive)	> 10 µM (inactive)	> 10 µM (inactive)	> 10 µM (inactive)	> 10 µM (inactive)	> 10 µM (inactive)	> 10 µM (inactive)	–	> 10 µM (inactive)	> 10 µM (inactive)	> 10 µM (inactive)	0.22 µM (active)
O=C(N/C(=C\c1ccc2c(c1)OCO2)c1nc2ccccc2[nH]1)c1ccccc1	43.7 µM (inactive)	32.2 µM (inactive)	–	–	33.6 µM (inactive)	41.2 µM (inactive)	27.7 µM (inactive)	–	–	20.9 µM (inactive)	24.9 µM (inactive)	24.5 µM (inactive)	38.5 µM (inactive)	21.9 µM (inactive)	25.1 µM (inactive)	37.6 µM (inactive)	26.9 µM (inactive)	–	–	33.1 µM (inactive)
Cc1cc(N(CCCCl)CCCCl)ccc1/C=N/c1cccc(Cl)c1	17.6 µM (inactive)	< 0.01 µM (active)	14.7 µM (inactive)	16.2 µM (inactive)	–	–	13.2 µM (inactive)	–	17.7 µM (inactive)	12.1 µM (inactive)	–	–	13.8 µM (inactive)	11.8 µM (inactive)	11.5 µM (inactive)	1.2 µM (inactive)	–	14.3 µM (inactive)	–	–
N#CCC(=O)N/N=C(/C(=O)Nc1ccccc1)C1C(=O)N(c2ccccc2)N=C1N (stereo not drawn)	> 100 µM (inactive)	> 100 µM (inactive)	–	–	> 100 µM (inactive)	> 100 µM (inactive)	> 100 µM (inactive)	–	–	> 100 µM (inactive)	> 100 µM (inactive)	> 100 µM (inactive)	> 100 µM (inactive)	> 100 µM (inactive)	> 100 µM (inactive)	> 100 µM (inactive)	> 100 µM (inactive)	–	–	> 100 µM (inactive)
N#Cc1nc(Nc2ccc(Cl)cc2)sc1N	16.9 µM (inactive)	2.34 µM (inactive)	–	–	7.57 µM (inactive)	24.2 µM (inactive)	19.5 µM (inactive)	–	–	28.8 µM (inactive)	2.78 µM (inactive)	15 µM (inactive)	3.47 µM (inactive)	1.51 µM (inactive)	6.68 µM (inactive)	12.1 µM (inactive)	2.94 µM (inactive)	–	–	10.9 µM (inactive)
Nc1nc(SCCC/C=C/B(O)O)nc2c1ncn2C1OC(COP(=O)(O)O)C(O)C1O (stereo not drawn)	> 203 µM (inactive)	> 203 µM (inactive)	–	–	> 203 µM (inactive)	–	> 203 µM (inactive)	–	–	> 203 µM (inactive)	> 203 µM (inactive)	> 203 µM (inactive)	> 203 µM (inactive)	> 203 µM (inactive)	> 203 µM (inactive)	> 203 µM (inactive)	> 203 µM (inactive)	–	–	> 203 µM (inactive)
c1ccc(-c2cn3nc(N4CCOCC4)sc3n2)cc1	> 100 µM (inactive)	> 100 µM (inactive)	> 100 µM (inactive)	> 100 µM (inactive)	16.6 µM (inactive)	> 100 µM (inactive)	62.4 µM (inactive)	> 100 µM (inactive)	> 100 µM (inactive)	38.7 µM (inactive)	–	53.7 µM (inactive)	–	–	> 100 µM (inactive)	> 100 µM (inactive)	> 100 µM (inactive)	60 µM (inactive)	–	–
CCCCCCCCCCCCCCCC(=O)NC1CCc2cc(O)c(O)c(O)c2-c2ccc(SC)c(=O)cc21 (stereo not drawn)	3.7 µM (inactive)	1.61 µM (inactive)	–	–	13 µM (inactive)	19 µM (inactive)	8.39 µM (inactive)	–	–	2.62 µM (inactive)	2.07 µM (inactive)	9.59 µM (inactive)	12 µM (inactive)	2.79 µM (inactive)	5.21 µM (inactive)	12.9 µM (inactive)	3.93 µM (inactive)	–	–	19.3 µM (inactive)
COc1cc(OC)c(/C=C\c2ccnc3ccccc23)c(OC)c1	2.53 µM (inactive)	3.06 µM (inactive)	5.37 µM (inactive)	0.569 µM (active)	6.93 µM (inactive)	4.65 µM (inactive)	1.45 µM (inactive)	–	0.404 µM (active)	–	3.73 µM (inactive)	5.19 µM (inactive)	2.73 µM (inactive)	0.689 µM (active)	1.98 µM (inactive)	6.05 µM (inactive)	1.7 µM (inactive)	2.64 µM (inactive)	0.329 µM (active)	2.88 µM (inactive)
O=C(CC(C(=O)c1cccs1)c1cccs1)c1ccccc1Cl (stereo not drawn)	> 100 µM (inactive)	50.1 µM (inactive)	> 100 µM (inactive)	> 100 µM (inactive)	> 100 µM (inactive)	49.8 µM (inactive)	> 100 µM (inactive)	–	> 100 µM (inactive)	> 100 µM (inactive)	> 100 µM (inactive)	> 100 µM (inactive)	> 100 µM (inactive)	39.5 µM (inactive)	54 µM (inactive)	> 100 µM (inactive)	> 100 µM (inactive)	75.3 µM (inactive)	97.7 µM (inactive)	> 100 µM (inactive)
Cc1c2ccnc(C(N)=O)c2c(C)c2c1[nH]c1ccccc12	1.53 µM (inactive)	5.82 µM (inactive)	–	2.39 µM (inactive)	3.83 µM (inactive)	10.6 µM (inactive)	9.2 µM (inactive)	–	–	10.6 µM (inactive)	6.76 µM (inactive)	5.97 µM (inactive)	4.65 µM (inactive)	–	5.07 µM (inactive)	18.8 µM (inactive)	4.73 µM (inactive)	–	–	8.18 µM (inactive)
O=C(CCc1ccc(O)cc1)c1c(O)cc(O)cc1OC1OC(CO)C(O)C(O)C1O (stereo not drawn)	> 100 µM (inactive)	–	> 100 µM (inactive)	–	> 100 µM (inactive)	> 100 µM (inactive)	> 100 µM (inactive)	–	> 100 µM (inactive)	> 100 µM (inactive)	> 100 µM (inactive)	> 100 µM (inactive)	> 100 µM (inactive)	–	> 100 µM (inactive)	> 100 µM (inactive)	–	> 100 µM (inactive)	> 100 µM (inactive)	> 100 µM (inactive)
O=C1CS(=O)(=O)C(c2cccc(Oc3ccccc3)c2)N1c1cccc(Cl)c1Cl (stereo not drawn)	33.8 µM (inactive)	–	42.6 µM (inactive)	6.11 µM (inactive)	31.3 µM (inactive)	23.8 µM (inactive)	–	–	19.7 µM (inactive)	29.3 µM (inactive)	20.8 µM (inactive)	40.6 µM (inactive)	17.7 µM (inactive)	18.7 µM (inactive)	26.9 µM (inactive)	47.5 µM (inactive)	10.7 µM (inactive)	29.8 µM (inactive)	19.6 µM (inactive)	–
